ChEMBL document CHEMBL3997820, “Synthesis and evaluation of anticonvulsant properties of new N-Mannich bases derived from pyrrolidine-2,5-dione and its 3-methyl-, 3-isopropyl, and 3-benzhydryl analogs” (Bioorg Med Chem Lett, 2017)
Active and inactive are the calls of the source. The calls are words filed in the database; no cut-off is given here.

Assays:
Mus musculus [1] = assay: Protection index, ratio of TD50 for motor impairment in ip dosed albino CD1 mouse to ED50 for protection against 32 mA current-induced seizure in ip dosed albino CD1 mouse by 6 Hz psychomotor test
Mus musculus [2] = assay: Anticonvulsant activity in albino CD1 mouse assessed as protection against maximal electroshock-induced seizures at 300 mg/kg, ip measured after 4 hrs; format: functional, organism-based
Mus musculus [3] = assay: Neurotoxicity in ip dosed albino CD1 mouse assessed as minimum dose required to induce motor impairment in half and more mouse measured after 0.5 hrs by rotarod test; format: toxicity, organism-based; details: in vivo
Homo sapiens = species: Homo sapiens; assay: Inhibition of N-type calcium channel (unknown origin)
Mus musculus [4] = assay: Anticonvulsant activity in ip dosed albino CD1 mouse assessed as protection against subcutaneous pentylenetetrazole-induced seizures by measuring time to peak effect; format: functional
Mus musculus [5] = assay: Anticonvulsant activity in ip dosed albino CD1 mouse assessed as protection against 32 mA current-induced seizure by 6 Hz psychomotor test; format: functional
Mus musculus [6] = assay: Anticonvulsant activity in ip dosed albino CD1 mouse assessed as minimum dose required to protect subcutaneous pentylenetetrazole-induced seizures in half and more mouse measured after 4 hrs; format: functional
Mus musculus [7] = assay: Neurotoxicity in ip dosed albino CD1 mouse assessed as minimum dose required to induce motor impairment in half and more mouse measured after 4 hrs by rotarod test; format: toxicity, organism-based; details: in vivo
Mus musculus [8] = assay: Anticonvulsant activity in albino CD1 mouse assessed as protection against subcutaneous pentylenetetrazole-induced seizures at 300 mg/kg, ip measured after 0.5 hrs; format: functional, organism-based
Mus musculus [9] = assay: Protection index, ratio of TD50 for motor impairment in ip dosed albino CD1 mouse to ED50 for protection against maximal electroshock-induced seizures in ip dosed albino CD1 mouse
Mus musculus [10] = assay: Anticonvulsant activity in ip dosed albino CD1 mouse assessed as protection against maximal electroshock-induced seizures; format: functional
Mus musculus [11] = assay: Anticonvulsant activity in ip dosed albino CD1 mouse assessed as protection against subcutaneous pentylenetetrazole-induced seizures; format: functional
Mus musculus [12] = assay: Anticonvulsant activity in albino CD1 mouse assessed as protection against 32 mA current-induced seizure at 100 mg/kg, ip after 0.5 hrs by 6 Hz psychomotor test; format: functional
Mus musculus [13] = assay: Protection index, ratio of TD50 for motor impairment in ip dosed albino CD1 mouse to ED50 for protection against subcutaneous pentylenetetrazole-induced seizures in ip dosed albino CD1 mouse
Mus musculus [14] = assay: Anticonvulsant activity in ip dosed albino CD1 mouse assessed as minimum dose required to protect maximal electroshock-induced seizures in half and more mouse measured after 0.5 hrs; format: functional
[15] = Neurotoxicity in ip dosed albino CD1 mouse assessed as motor impairment by rotarod test; format: toxicity, organism-based; details: in vivo
Rattus norvegicus = species: Rattus norvegicus; assay: Inhibition of [3H]-BTX binding to voltage-sensitive Na+ channel site 2 in Sprague-Dawley rat cerebral cortex synaptoneurosomes at 100 uM after 60 mins by liquid scintillation spectroscopic method relative to control
Mus musculus [16] = assay: Anticonvulsant activity in ip dosed albino CD1 mouse assessed as protection against maximal electroshock-induced seizures by measuring time to peak effect; format: functional

Q: Which “Ratio TD50/ED50” value (Mus musculus [1]) does the source give for O=C1CC(C(c2ccccc2)c2ccccc2)C(=O)N1CN1CCOCC1 (stereo not drawn) here?
A: 5.59

Q: What about the Activity (Mus musculus [2]) of the same compound?
A: inactive

Q: And the Activity (Mus musculus [3])?
A: 300 mg/kg

Q: And the inhibition (Homo sapiens)?
A: inactive

Q: What about the Time (Mus musculus [4]) of the same compound?
A: 4 h

Q: What about the ED50 (Mus musculus [5]) of the same compound?
A: 45.4 mg/kg

Q: And the Activity (Mus musculus [6])?
A: 100 mg/kg

Q: What about the Activity (Mus musculus [7]) of the same compound?
A: 300 mg/kg

Q: And the Activity (Mus musculus [8])?
A: inactive

Q: What about the “Ratio TD50/ED50” value (Mus musculus [9]) of the same compound?
A: 6.2

Q: What about the ED50 (Mus musculus [10]) of the same compound?
A: 41 mg/kg

Q: And the ED50 (Mus musculus [11])?
A: 102 mg/kg

Q: And the Activity (Mus musculus [12])?
A: 100%

Q: And the “Ratio TD50/ED50” value (Mus musculus [13])?
A: 2.5

Q: What about the Activity (Mus musculus [14]) of the same compound?
A: 100 mg/kg

Q: What about the TD50 [15] of the same compound?
A: 254 mg/kg

Q: And the inhibition (Rattus norvegicus)?
A: 29.9%

Q: And the Time (Mus musculus [16])?
A: 0.5 h
